Laboratory results taken from patent US5061794A, “Cephalosporin derivatives, and antibacterial agents” (priority 1986, dated 1991).
Where two headings read alike, the source gives them in different places.

Legend:
Ps. cepacia 23 = assay: in vitro antibacterial activity, agar plate dilution method (MIC); format: cell-based, Pseudomonas cepacia; details: Burkholderia cepacia, 23, 16 h, read-out: Minimum Inhibitory Concentration (MIC)
How it was run: (§1)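 First, strains were cultured overnight in Mueller Hinton broth. Next, one loopful went onto drug-containing Mueller Hinton agar (10^6 CFU/ml). Finally, after 37° C. incubation for 16 hours, MIC was determined in μg/ml.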

P. vulgaris No. 33 = assay: as above; format: cell-based; details: Proteus vulgaris, NO.33, 16 h, read-out: Minimum Inhibitory Concentration (MIC), *P. vulgaris No. 33, lactamase-producing strain; 10^6 CFU/ml
How it was run: as §1

P. vulgaris HX-19 = assay: as above; format: cell-based; details: Proteus vulgaris, HX19, 16 h, P. vulgaris HX-19; 10^6 CFU/ml; read-out: Minimum Inhibitory Concentration (MIC)
How it was run: as §1

K. pneumoniae No. 42 = assay: as above; format: cell-based; details: Klebsiella pneumoniae, NO.42, 16 h, read-out: Minimum Inhibitory Concentration (MIC), *K. pneumoniae No. 42, lactamase-producing strain; 10^6 CFU/ml
How it was run: as §1

E. coli GN5482 = assay: as above; format: cell-based; details: Escherichia coli, GN5482, 16 h
How it was run: as §1

E. cloacae 963 = assay: as above; format: cell-based; details: 10^6 CFU/ml
How it was run: as §1

S. marcescens IAM 1184 = assay: as above; format: cell-based; details: Serratia marcescens, IAM1184, 16 h, read-out: Minimum Inhibitory Concentration (MIC)
How it was run: as §1

S. marcescens No. 16-2 = assay: as above; format: cell-based; details: Serratia marcescens, NO.162, 16 h
How it was run: as §1

K. oxytoca GN10650 = assay: as above; format: cell-based; details: Klebsiella oxytoca, GN10650, 16 h, read-out: Minimum Inhibitory Concentration (MIC), *K. oxytoca GN10650, lactamase-producing strain; 10^6 CFU/ml
How it was run: as §1

E. cloacae Nek 39 = assay: as above; format: cell-based; details: Enterobacter cloacae, NEK39, 16 h, read-out: Minimum Inhibitory Concentration (MIC), *E. cloacae Nek 39, lactamase-producing strain; 10^6 CFU/ml
How it was run: as §1

K. pneumoniae PCI-602 = assay: as above; format: cell-based; details: Klebsiella pneumoniae, PCI602, 16 h, 10^6 CFU/ml
How it was run: as §1

M. morganii GN5407 = assay: as above; format: cell-based; details: Morganella morganii, GN5407, 16 h, read-out: Minimum Inhibitory Concentration (MIC), *M. morganii GN5407, lactamase-producing strain; 10^6 CFU/ml
How it was run: as §1

E. coli NIHJ JC2 = assay: as above; format: cell-based; details: Escherichia coli, NIHJJC2, 16 h, read-out: Minimum Inhibitory Concentration (MIC), E. coli NIHJ JC2, 10^6 CFU/ml, 37° C.
How it was run: as §1

S. aureus 209P NIHJ-JC1 = assay: as above; format: cell-based; details: Staphylococcus aureus, 16 h, read-out: Minimum Inhibitory Concentration (MIC)
How it was run: as §1

E. coli CSH(RE45) = assay: microbe, parasite or virus in culture; format: cell-based; details: Escherichia coli, 16 h, read-out: Minimum Inhibitory Concentration (MIC), *E. coli CSH(RE45), lactamase-producing strain; 10^6 CFU/ml
How it was run: as §1

E. coli CSH2 (RK1) = assay: microbe, parasite or virus in culture; format: cell-based; details: Escherichia coli, 16 h, read-out: Minimum Inhibitory Concentration (MIC), *E. coli CSH2 (RK1), lactamase-producing strain; 10^6 CFU/ml
How it was run: as §1

A. calcoaceticus No. 4 = assay: in vitro antibacterial activity, agar plate dilution method (MIC); format: cell-based, Acinetobacter calcoaceticus; details: Acinetobacter calcoaceticus, NO.4, 16 h, A. calcoaceticus No. 4; 10^6 CFU/ml; read-out: Minimum Inhibitory Concentration (MIC)
How it was run: as §1

Ps. aeruginosa IF03445 = assay: as above; format: cell-based, Pseudomonas aeruginosa; details: Pseudomonas aeruginosa, 10^6 CFU/ml
How it was run: as §1

Ps. aeruginosa AK 109 = assay: as above; format: cell-based, Pseudomonas aeruginosa; details: Pseudomonas aeruginosa, AK109, 16 h, read-out: Minimum Inhibitory Concentration (MIC)
How it was run: as §1

Ps. aeruginosa AKR17 = assay: as above; format: cell-based, Pseudomonas aeruginosa; details: Pseudomonas aeruginosa, 16 h; Ps. aeruginosa AKR17; 10^6 CFU/ml; read-out: Minimum Inhibitory Concentration (MIC)
How it was run: as §1

[1] = read-out: Minimum Inhibitory Concentration (MIC)
[2] = Enterobacter cloacae, 963, 16 h, read-out: Minimum Inhibitory Concentration (MIC), E. cloacae 963
[3] = read-out: Minimum Inhibitory Concentration (MIC), K. pneumoniae PCI-602
[4] = IF03445, 16 h, read-out: Minimum Inhibitory Concentration (MIC), Ps. aeruginosa IF03445
[5] = read-out: Minimum Inhibitory Concentration (MIC), *E. coli GN5482, lactamase-producing strain, 10^6 CFU/ml
[6] = Ps. aeruginosa AK 109, 10^6 CFU/ml

Row | Structure (SMILES) | MIC (Ps. cepacia 23) [µg/mL] | MIC (P. vulgaris No. 33) [µg/mL] | MIC (P. vulgaris HX-19) [µg/mL] | MIC (K. pneumoniae No. 42) [µg/mL] | MIC (E. cloacae 963; [2]) [µg/mL] | MIC (S. marcescens IAM 1184) [µg/mL] | MIC (S. marcescens No. 16-2; [1]) [µg/mL] | MIC (K. oxytoca GN10650) [µg/mL] | MIC (E. cloacae Nek 39) [µg/mL] | MIC (K. pneumoniae PCI-602; [3]) [µg/mL] | MIC (M. morganii GN5407) [µg/mL] | MIC (E. coli NIHJ JC2) [µg/mL] | MIC (E. coli CSH(RE45)) [µg/mL] | MIC (E. coli CSH2 (RK1)) [µg/mL] | MIC (A. calcoaceticus No. 4) [µg/mL] | MIC (Ps. aeruginosa IF03445; [4]) [µg/mL] | MIC (Ps. aeruginosa AKR17) [µg/mL] | MIC (E. coli GN5482; [5]) [µg/mL] | MIC (S. aureus 209P NIHJ-JC1) [µg/mL] | MIC (Ps. aeruginosa AK 109; [6]) [µg/mL] | also measured
1 | CO/N=C(\C(=O)N[C@@H]1C(=O)N2C(C(=O)O)=C(CSc3nc(-c4ccc(O)cc4)cs3)CS[C@H]12)c1csc(N)n1 [compound 10, sodium 7β-[2-(2-aminothiazol-4-yl)-2-methoxyiminoacetamido]-3-[4-(4-hydroxyphenyl)thiazol-2-yl]thiomethyl-3-cephem-4-carboxylate, reference compound] | 3.12 | 0.78 | < 0.006 | 1.56 | 1.56 | 0.78 | 3.12 | 3.12 | 3.12 | < 0.006 | 0.78 | 0.78 | 0.78 | 0.39 | 50 | 6.25 | > 100 | – | – | – | MIC (E. coli GN5482; [1]): 0.39 µg/mL; MIC (S. aureus 209P NIHJ-JC1; S. aureus 209P NIHJ-JC1, 10^6 CFU/ml, 37° C., 16 hours): 0.2 µg/mL; MIC (Ps. aeruginosa AK 109): 12.5 µg/mL
2 | CC(C)(O/N=C(\C(=O)N[C@@H]1C(=O)N2C(C(=O)O)=C(CSc3nc(-c4ccccc4)cs3)CS[C@H]12)c1csc(N)n1)C(=O)O [compound 11, disodium 7β-[2-(2-aminothiazol-4-yl)-2-(1-carboxylate-1-methylethoxyimino)acetamido]-3-(4-phenylthiazol-2-yl) thiomethyl-3-cephem-4-carboxylate, reference compound] | 12.5 | 0.78 | < 0.006 | 3.12 | – | 1.56 | – | 3.12 | 12.5 | 0.1 | 1.56 | 3.12 | 1.56 | 1.56 | > 100 | 12.5 | > 100 | 1.56 | 3.12 | 50 | MIC (E. cloacae 963; Enterobacter cloacae, 16 h, E. cloacae 963, read-out: Minimum Inhibitory Concentration (MIC)): 6.2 µg/mL; MIC (S. marcescens No. 16-2; read-out: Minimum Inhibitory Concentration (MIC), *S. marcescens No. 16-2, lactamase-producing strain, 10^6 CFU/ml): 6.25 µg/mL
3 | CC(C)(O/N=C(\C(=O)N[C@@H]1C(=O)N2C(C(=O)O)=C(CSc3nc(-c4ccc(O)cc4)cs3)CS[C@H]12)c1csc(N)n1)C(=O)O [compound 12, disodium 7β-[2-(2-aminothiazol-4-yl)-2-(1-carboxylate-1-methylethoxyimino)acetamido]-3-[4-(4-hydroxyphenyl)thiazol-2-yl]thiomethyl-3-cephem-4-carboxylate, reference compound] | 3.12 | 0.39 | < 0.006 | 3.12 | 3.12 | 0.78 | 12.5 | 1.56 | 12.5 | – | 1.56 | 3.12 | 1.56 | 1.56 | 100 | – | > 100 | 1.56 | 3.12 | 25 | MIC (K. pneumoniae PCI-602; K. pneumoniae PCI-602, read-out: Minimum Inhibitory Concentration (MIC)): 0.05 µg/mL; MIC (Ps. aeruginosa IF03445; 16 h, Ps. aeruginosa IF03445, read-out: Minimum Inhibitory Concentration (MIC)): 50 µg/mL
